# Molecular target: T1, SRPK1 (Homo sapiens, UniProt Q96SB4)
# T1 construct: purchased Thermo Fisher Scientific (Life Technologies) SelectScreen
# Assay: SelectScreen Z'LYTE
# Type: biochemical
# Procedure, shortened: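 NU5455 was profiled across the SelectScreen Broad panel of kinase activity and binding assays. Z'LYTE reactions such as CSF1R ran at apparent Km ATP, while the Adapta CAMK1 assay used ATP listed as 10. Values are given as percent.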
# T1 sequence (Q96SB4 whole entry): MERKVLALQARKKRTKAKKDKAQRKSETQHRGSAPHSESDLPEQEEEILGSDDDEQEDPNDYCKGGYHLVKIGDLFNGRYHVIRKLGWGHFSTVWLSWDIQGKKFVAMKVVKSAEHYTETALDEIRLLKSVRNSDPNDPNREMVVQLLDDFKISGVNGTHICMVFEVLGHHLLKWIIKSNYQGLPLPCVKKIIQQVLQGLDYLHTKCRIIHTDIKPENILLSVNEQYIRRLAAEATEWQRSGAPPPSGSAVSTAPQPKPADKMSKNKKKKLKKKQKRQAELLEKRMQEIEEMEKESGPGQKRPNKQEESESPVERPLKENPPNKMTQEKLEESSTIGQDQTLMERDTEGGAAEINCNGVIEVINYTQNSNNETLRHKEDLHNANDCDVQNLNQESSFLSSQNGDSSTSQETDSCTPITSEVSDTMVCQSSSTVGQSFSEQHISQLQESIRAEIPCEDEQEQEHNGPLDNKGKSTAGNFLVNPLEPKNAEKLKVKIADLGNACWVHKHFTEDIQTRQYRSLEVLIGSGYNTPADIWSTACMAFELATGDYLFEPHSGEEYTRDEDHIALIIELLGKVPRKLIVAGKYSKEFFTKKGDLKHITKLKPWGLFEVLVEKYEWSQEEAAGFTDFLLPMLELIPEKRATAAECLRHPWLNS
compound,measurement,value
CN(C(=O)CN1CCOCC1)c1ccc2sc3c(-c4cccc5c(=O)cc(N6CC7CCC(C6)O7)oc45)cccc3c2c1 [NU5455],inhibition at 1 µM,-1.1%

# From article PMC6934184, “Selective DNA-PKcs inhibition extends the therapeutic index of localized radiotherapy and chemotherapy” (The Journal of Clinical Investigation, 2019)
